Among the data in US12391675B2, “NLRP3 modulators” (INNATE TUMOR IMMUNITY, INC., priority 2019, dated 2025) are EC50 values, retold here.

By EC50 is commonly meant the concentration at which the effect is half-maximal.

The structures appear in SMILES notation.

One experiment concerns the target T1, NLRP3 (Homo sapiens, UniProt Q96P20).
T1 construct: host or cells: PMA-differentiated THP-1 cells
The experiment can be described thus: Measurement of IL-1β production in PMA-differentiated THP-1 cells (NLRP3 hIL1B EC50). It counts as cell-based. The procedure: Measurement of IL-1β Production in PMA-Differentiated THP-1 Cells
THP-1 cells were purchased from the American Type Culture Collection and sub-cultured according to instructions from the supplier. Prior to experiments, cells were cultured in RPMI 1640 containing 10% heat inactivated FBS, penicillin (100 units/ml) and streptomycin (100 μg/ml), and maintained in log phase prior to experimental setup. Prior to the experiment THP-1 were treated with PMA (Phorbol 12-myristate 13-acetate) (10 μg/ml) for 24 hours. The day of the experiment the media was removed and attaching cells were treated with trypsin for 2 minutes, cells were then collected, washed with PBS (phosphate buffer saline), spin down, resuspended in 2% heat inactivated FBS with RPMI at a concentration of 1×10^6 cells/ml, and 100 μl was plated in a 96 well plate. Compounds were dissolved in dimethyl sulfoxide (DMSO) and added to the culture medium to achieve desired concentration (e.g. 100, 30, 10, 3, 1, 0.3 or 0.1 μM). Cells were incubated with compounds for 4 hours. Cell free supernatant was collected and the production of IL-1β was evaluated by ELISA. A vehicle only control was run concurrently with each experiment. Final DMSO concentration was 1%.
Measurement of IL-1β Production in PMA-Differentiated THP-1 Cells (Alternative Procedure)
THP-1 cells were purchased from the American Type Culture Collection and sub-cultured according to instructions from the supplier. Prior to experiments, cells were cultured in RPMI 1640 containing 10% heat inactivated FBS, penicillin (100 units/ml), streptomycin (100 μg/ml), HEPES (10 mM) and sodium pyruvate (1 mM) and maintained in log phase prior to experimental setup. Prior to the experiment, THP-1 cells were treated with PMA (Phorbol 12-myristate 13-acetate) (20 μg/ml) overnight. The day of the experiment, the media was removed and attached cells were treated with trypsin for 2 minutes, cells were then collected, washed with PBS (phosphate buffer saline), pelleted by centrifugation and resuspended in 2% heat inactivated FBS with RPMI at a concentration of 50,000 cells/well in a 384 well plate. Cell free supernatant was collected and the production of IL-1β was evaluated by ELISA. Compounds were dissolved in dimethyl sulfoxide (DMSO) and added to the culture medium to achieve desired concentration (e.g. 100, 30, 10, 3, 1, 0.3 or 0.1 μM). Cells were incubated with compounds for 2 hours. A vehicle only control was run concurrently with each experiment. Final DMSO concentration was 1%.
Measurement of IL-1β Production—hTRF Protocol (Second Alternative Procedure)
Serial dilutions of compounds in DMSO were added to low volume 384 well plates at 100 nl/well using an ECHO 550 acoustic dispenser (Labcyte) to achieve final starting concentration of 10 μM in assay.
THP-1 cells in RPMI (Gibco, 11875) media with 10% FBS at a density of 1×10^6 cell/ml in a T175 flask were treated with a final concentration of phorbol 12-myristate 13-acetate (PMA) (Sigma, P1585) of 50 ng/ml overnight at 37° C. at 5% CO2 for differentiation. Cells were harvested the next day after rinsing well wth dPBS using 0.5% trypsin. A cell solution was prepared of 1×10^6 cells/ml for 50,000 cells in 50 μl/well in RPMI media with 2% FBS. Cells were plated using a multichannel pipette onto the compound dilutions in Greiner, 384 well, black clear bottom tissue culture treated plates (781090). The plates were incubated in 37° C. incubator at 5% CO2 for 2 hours.
After the 2 hour incubation, the cell plates were spun in the centrifuge for 5 minutes at 1200 rpm. Using the Felix (CyBio), 8 μl of the supernatant was transferred to 384 well, low volume, white proxy plates. (Perkin Elmer, 6008230). A human IL1beta hTRF kit was used to analyze the supernatant (CISBIO, 62HIL1BPEG). The kit instructions were followed for preparing the IL1Beta standard curve and then the antibodies from the kit were diluted 1:40 rather than 1:20 as kit instructed. […]

Another experiment concerns the target T2, human TLR7 (Homo sapiens, UniProt Q9NYK1).
T2 construct: host or cells: human HEK-Blue cells co-expressing TLR7 and an NF-kB/AP1-inducible SEAP reporter
T2 sequence (Q9NYK1 27-1049): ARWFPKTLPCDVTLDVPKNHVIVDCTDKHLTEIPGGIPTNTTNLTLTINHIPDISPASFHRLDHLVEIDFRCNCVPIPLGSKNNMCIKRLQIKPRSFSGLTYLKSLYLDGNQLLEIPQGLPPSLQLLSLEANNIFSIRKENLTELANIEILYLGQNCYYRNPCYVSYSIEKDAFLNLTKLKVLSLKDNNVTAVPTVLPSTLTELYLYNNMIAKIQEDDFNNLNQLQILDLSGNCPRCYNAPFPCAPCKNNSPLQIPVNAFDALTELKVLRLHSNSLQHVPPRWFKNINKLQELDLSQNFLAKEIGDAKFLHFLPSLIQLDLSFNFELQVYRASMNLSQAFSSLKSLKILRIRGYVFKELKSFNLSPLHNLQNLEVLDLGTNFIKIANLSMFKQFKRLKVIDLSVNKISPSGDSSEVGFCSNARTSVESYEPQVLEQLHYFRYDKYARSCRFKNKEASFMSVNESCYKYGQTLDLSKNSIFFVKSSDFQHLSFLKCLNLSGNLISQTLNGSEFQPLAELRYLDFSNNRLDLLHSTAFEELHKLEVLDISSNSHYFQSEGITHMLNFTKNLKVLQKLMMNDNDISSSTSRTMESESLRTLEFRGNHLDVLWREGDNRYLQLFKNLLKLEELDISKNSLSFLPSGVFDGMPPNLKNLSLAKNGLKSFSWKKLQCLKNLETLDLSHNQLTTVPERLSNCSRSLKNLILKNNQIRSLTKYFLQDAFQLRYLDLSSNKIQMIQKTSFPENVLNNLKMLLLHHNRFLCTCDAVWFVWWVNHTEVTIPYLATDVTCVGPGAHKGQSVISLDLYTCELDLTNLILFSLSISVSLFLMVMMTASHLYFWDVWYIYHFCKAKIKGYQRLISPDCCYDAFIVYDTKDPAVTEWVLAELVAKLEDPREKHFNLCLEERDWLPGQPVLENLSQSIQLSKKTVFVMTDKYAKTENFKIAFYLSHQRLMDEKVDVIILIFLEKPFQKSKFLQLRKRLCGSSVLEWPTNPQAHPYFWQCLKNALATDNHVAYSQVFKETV
The experiment can be described thus: In vitro human TLR7 binding reporter assay (HEK-Blue cells, NF-kB/AP1-inducible SEAP reporter). It counts as cell-based. The following applies: HEK-Blue cells expressing TLR7, SEAP reporter; read-out: TLR7 agonist EC50. The procedure:
In Vitro Human TLR7 and TLR8 Binding Reporter Assays
Logarithmically-growing human HEK-Blue cells co-expressing a TLR7 or TLR8 gene and a NF-kB/AP1-inducible SEAP (secreted embryonic alkaline phosphatase; Invivogen, San Diego, CA) reporter gene are added to individual wells of a 384-well plate (15,000 cells per 20 μL per well) and maintained for 24 h at 37° C., 5% CO2. Test compounds or DMSO are distributed to separate wells the next day using acoustic liquid handling technology (100 nL per well) and cells are subsequently incubated for 18 h at 37° C., 5% CO2. Cellular SEAP production is measured using an Envision plate reader instrument thirty minutes after adding freshly-made Quanti-Blue reagent (prepared by following manufacturer instructions; Invivogen, San Diego, CA) to the HEK-Blue TLR Nf-kB-SEAP cell reactions. All EC50 values (half-maximal effective concentration) are determined using proprietary data analysis software.
On the technique in general: A reporter such as luciferase makes a cellular process visible.

T1 sequence (Q96P20 whole entry): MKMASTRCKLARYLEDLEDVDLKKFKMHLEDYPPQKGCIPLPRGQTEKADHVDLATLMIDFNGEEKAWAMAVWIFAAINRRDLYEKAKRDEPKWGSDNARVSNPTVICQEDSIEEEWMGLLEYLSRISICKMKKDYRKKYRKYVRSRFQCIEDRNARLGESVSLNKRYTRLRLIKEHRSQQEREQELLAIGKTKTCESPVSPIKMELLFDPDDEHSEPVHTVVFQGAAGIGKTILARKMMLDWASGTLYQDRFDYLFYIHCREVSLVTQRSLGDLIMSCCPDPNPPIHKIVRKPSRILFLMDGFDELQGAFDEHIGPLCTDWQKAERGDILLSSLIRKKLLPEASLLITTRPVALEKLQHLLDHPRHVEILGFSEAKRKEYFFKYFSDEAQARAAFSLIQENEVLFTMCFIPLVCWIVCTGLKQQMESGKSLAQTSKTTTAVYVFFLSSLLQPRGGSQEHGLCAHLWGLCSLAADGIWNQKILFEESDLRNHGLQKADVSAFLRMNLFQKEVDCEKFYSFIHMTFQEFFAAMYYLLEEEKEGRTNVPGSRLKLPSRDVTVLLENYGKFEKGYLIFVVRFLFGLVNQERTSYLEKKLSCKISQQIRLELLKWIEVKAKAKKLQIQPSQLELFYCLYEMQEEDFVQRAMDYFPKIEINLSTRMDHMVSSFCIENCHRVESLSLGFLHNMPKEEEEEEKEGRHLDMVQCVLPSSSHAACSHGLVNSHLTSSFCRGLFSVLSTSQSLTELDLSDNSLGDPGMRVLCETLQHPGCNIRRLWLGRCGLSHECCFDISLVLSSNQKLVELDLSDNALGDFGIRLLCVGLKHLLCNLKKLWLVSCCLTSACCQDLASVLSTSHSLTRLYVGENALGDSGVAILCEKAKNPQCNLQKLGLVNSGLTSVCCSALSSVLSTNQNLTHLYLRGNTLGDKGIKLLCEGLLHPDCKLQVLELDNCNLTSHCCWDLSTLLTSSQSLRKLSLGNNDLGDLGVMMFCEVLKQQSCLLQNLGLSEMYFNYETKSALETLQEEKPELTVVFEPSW

`Nc1cc(NC23CC(CO)(C2)C3)c2ccc(-c3ccn[nH]3)cc2n1` [Example 16, (3-((2-amino-7-(1H-pyrazol-5-yl)quinolin-4-yl)amino)bicyclo[1.1.1]pentan-1-yl)methanol]: the 50% effective concentration (EC50) on NLRP3 is 130 nM; on human TLR7, less than 50000 nM.

For the compound `C=CC12CCC(CNc3cc(N)nc4cc(-c5ccn[nH]5)ccc34)(CC1)CO2` [Example 25, 7-(1H-pyrazol-3-yl)-N4-((1-vinyl-2-oxabicyclo[2.2.2]octan-4-yl)methyl)quinoline-2,4-diamine], the values for the EC50 on NLRP3 and at human TLR7 were 2000 nM and less than 50000 nM, respectively.
